Where a name gives a salt, the structure may show the parent alone.
Columns and labels:
[1] = system: intradermal capsaicin model; experiment: Phase I crossover study, intradermal capsaicin model: pharmacodynamics; type: in vivo, human
Source text: Participants. The volunteers were males aged 18 to 55 years with a body mass index (BMI) of 18 to 30 kg/m2. They were healthy as determined by a responsible physician, based on a medical evaluation including medical history, physical examination, concomitant medication, vital signs, 12-lead ECG, and clinical laboratory evaluations. The participants must have been in good general health with a skin type compatible with the measures and without significant skin allergies, pigmentary disorders or any active dermatological conditions. […] The participants provided written informed consent, which included compliance with the requirements and restrictions listed in the consent form, including the use of a condom during the trial and for 3 months after their final dose of trial medication, if their partner was a woman of childbearing potential.
Clinical and laboratory data. Prior to and 15, 30, 60, 90 and 120 minutes after administration of capsaicin, measurements of pain, hyperalgesia, allodynia and AF were performed. At 2 hours post-capsaicin injection, subjects completed a quantitative sensory testing (QST) battery at two sites on the volar surface of each forearm. One site was the most recent capsaicin injection site, and the other was at an equivalent point on the opposite forearm. […] There was a minimum washout period of 5 days between treatment periods.
Reconstitution was performed by a Pharmacist at the clinical site prior to dosing.
(§1) In order to maintain the blind, a double dummy approach was used.
Subjects were randomised to receive a single administration of a treatment combination during each treatment period. All subjects received each treatment combination once only.
Evaluation methods: Pharmacodynamics was assessed through pain measurements (response to ID injection of capsaicin, measurement of pain using a visual analogue scale, area and pain score of hyperalgesia, area and pain score of allodynia, and AF) and the ID capsaicin model. Subjects also completed a QST battery at two sites on the volar surface of either forearm. The QST battery included the following tests: thermal detection and pain thresholds, mechanical detection and pain thresholds, stimulus/response functions, wind-up ratio and pressure pain threshold.
For measurement of pain, a visual analogue scale (VAS) was used. The VAS consisted of a 100 mm line, with 0 representing "no pain" and 100 representing "worst pain imaginable". Subjects were asked to mark the VAS using a single vertical stroke at the point they considered to appropriately reflect their level of pain from the injection of capsaicin (not general pain). A new VAS was provided for each time point and subjects were not allowed to see their previous VAS responses. The VAS was scored by measuring from the left-hand end of the scale to the point where the subject had marked the line, and the distance in mm was recorded.
Response to pain was also assessed by a numeric rating scale (NRS). For example, by using an 11-point numeric rating scale ranging from 0 ("no pain") to 10 ("worst possible pain") and asking the subject to rate their pain. A NRS scale of 0 to 100 was also used in some assesments.
The thermal tests were performed using a thermode probe (Medoc). Cold and warm detection thresholds were measured first, then cold pain and heat pain thresholds were determined. The mean threshold temperature of 3 consecutive measurements was calculated. All thresholds were obtained with ramped stimuli (1°C/sec) that were terminated when the subject pressed a button. For thermal detection thresholds the ramp back to baseline was 1°C/sec, while for thermal pain thresholds this ramp was chosen at maximum device capacity resulting in approximately a nominal 5°C/sec.
The mechanical detection threshold was measured with a standardised set of modified von Frey nylons that exerted forces upon bending between 0.25 and 512 mN graded by a factor of 2 (1 to 2 seconds contact time). […]

[2] = Phase I crossover study, intradermal capsaicin model: safety evaluation (TEAEs); type: in vivo, human; settings: 300 mg pregabalin
Method: as §1
Safety was assessed through AE reporting, 12-lead ECG, vital signs, physical examinations and clinical laboratory evaluations. Pharmacokinetics was assessed by blood sampling.

[3] = biological target: T1, dopamine (DA) reuptake in synaptosomes (Rattus norvegicus, UniProt P23977); settings: hydrochloride; reported in US 9,133,184 B1; cited from earlier work
T1 construct: in synaptosomes as described in WO 97/16451 (NeuroSearch A/S); from tissue
T1 sequence (P23977 whole entry): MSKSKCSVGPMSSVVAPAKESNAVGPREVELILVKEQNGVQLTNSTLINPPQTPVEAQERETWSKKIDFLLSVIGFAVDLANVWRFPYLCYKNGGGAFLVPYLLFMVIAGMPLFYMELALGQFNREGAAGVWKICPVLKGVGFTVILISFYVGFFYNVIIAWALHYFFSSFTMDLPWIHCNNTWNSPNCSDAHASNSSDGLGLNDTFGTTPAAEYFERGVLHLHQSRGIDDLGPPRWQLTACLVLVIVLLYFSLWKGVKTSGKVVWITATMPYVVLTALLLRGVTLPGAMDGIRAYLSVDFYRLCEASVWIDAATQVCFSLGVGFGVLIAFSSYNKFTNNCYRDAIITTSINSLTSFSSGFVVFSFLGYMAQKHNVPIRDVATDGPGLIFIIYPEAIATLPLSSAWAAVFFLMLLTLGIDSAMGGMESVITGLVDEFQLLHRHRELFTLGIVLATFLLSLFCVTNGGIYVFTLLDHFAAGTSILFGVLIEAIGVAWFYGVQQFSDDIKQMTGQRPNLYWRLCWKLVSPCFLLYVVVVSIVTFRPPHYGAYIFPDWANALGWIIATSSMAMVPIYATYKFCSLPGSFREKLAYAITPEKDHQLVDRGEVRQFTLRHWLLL

[4] = biological target: T2, noradrenaline (NA) reuptake in synaptosomes (Rattus norvegicus, UniProt Q63380); settings: hydrochloride; reported in US 9,133,184 B1; cited from earlier work
T2 construct: in synaptosomes as described in WO 97/16451 (NeuroSearch A/S); from tissue
T2 sequence (Q63380 1-617): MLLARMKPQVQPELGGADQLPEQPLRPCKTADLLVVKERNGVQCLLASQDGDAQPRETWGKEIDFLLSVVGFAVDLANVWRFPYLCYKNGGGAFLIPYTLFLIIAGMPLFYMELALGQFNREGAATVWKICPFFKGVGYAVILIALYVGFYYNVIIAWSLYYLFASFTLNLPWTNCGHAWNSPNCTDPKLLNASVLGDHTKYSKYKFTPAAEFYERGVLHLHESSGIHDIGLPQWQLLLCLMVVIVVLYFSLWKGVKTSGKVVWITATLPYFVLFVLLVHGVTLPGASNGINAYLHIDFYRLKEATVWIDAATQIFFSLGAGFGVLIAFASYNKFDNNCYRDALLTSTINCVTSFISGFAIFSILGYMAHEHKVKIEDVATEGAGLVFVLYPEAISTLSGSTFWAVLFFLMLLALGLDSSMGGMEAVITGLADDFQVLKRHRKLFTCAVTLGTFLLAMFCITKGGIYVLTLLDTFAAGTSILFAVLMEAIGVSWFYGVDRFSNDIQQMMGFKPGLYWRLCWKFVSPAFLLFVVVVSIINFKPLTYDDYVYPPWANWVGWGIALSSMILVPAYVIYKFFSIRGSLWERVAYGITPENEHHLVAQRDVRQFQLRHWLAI

Compound	adjusted mean pain score of hyperalgesia compared to placebo ([1]; 5 mg and 10 mg IP2015, 300 mg pregabalin, all post-capsaicin injection timepoints)	average decrease in hyperalgesic area across all timepoints compared to placebo ([1]; 300 mg pregabalin) [cm^2]	Pain Score of Brush-evoked Allodynia Using an NRS, Adjusted Mean (MMRM) ([1]; 300 mg pregabalin capsule, overall, all timepoints, N=24, placebo 2.0)	Subjective Rating of Pain, Adjusted Mean (MMRM) ([1]; 300 mg pregabalin capsule, overall, all timepoints, N=24, placebo 17.1) [mm]	decrease of subjective rating of pain compared to placebo ([1]; 300 mg pregabalin, 15 min post capsaicin) [mm]	decrease of subjective rating of pain compared to placebo ([1]; 300 mg pregabalin, 30 min post capsaicin) [mm]	decrease of subjective rating of pain compared to placebo ([1]; 300 mg pregabalin, 60 min post capsaicin) [mm]	overall increase in warm detection threshold between test and control areas (QST) ([1]; 300 mg pregabalin, p = 0.063, post-hoc analysis)	incidence of TEAEs (share of subjects) [2] [%]	moderate TEAE dizziness [2] [subject]	moderate TEAE mood altered [2] [subject]	number of TEAEs reported [2] [events]	subjects reporting TEAEs [2] [subjects]	IC50 [3] [µM]	IC50 [4] [µM]
CC(C)C[C@H](CN)CC(=O)O [pregabalin, reference compound]	lower	7.8	1.5	14.4	1.5	3.8	4.4	close to significance	79.2	1	1	28	19	–	–
COc1cc2ccc(O[C@@H]3C[C@H]4CC[C@@H](C3)N4)cc2oc1=O [compound of formula (I) hydrochloride, exo-7-[(8-azabicyclo[3.2.1]octan-3-yl)oxy]-3-methoxy-chromen-2-one hydrochloride]	–	–	–	–	–	–	–	–	–	–	–	–	–	0.07	0.0038
